Measured values reported in patent US10150758B2, “PRMT5 inhibitors and uses thereof” (Epizyme, Inc., priority 2012, dated 2018).

Each molecule was assayed on Z-138 cells (assay: Z-138 Proliferation Assay (Cell Titer Glo)). Conditions: Homo sapiens, 120 h, 5 days, top concentration 20 μM.
Format: cell-based
Description: [formula] Z-138 Proliferation Assay
Z-138 suspension cells were purchased from ATCC (American Type Culture Collection, Manassas, Va.). RPMI/Glutamax medium, penicillin-streptomycin, heat inactivated fetal bovine serum were purchased from Life Technologies, Grand Island, N.Y., USA. V-bottom polypropylene 384-well plates were purchased from Greiner Bio-One, Monroe, N.C., USA. Cell culture 384-well white opaque plates were purchased from Perkin Elmer, Waltham, Mass., USA. Cell-Titer Glo® was purchased from Promega Corporation, Madison, Wis., USA. SpectraMax M5 plate reader was purchased from Molecular Devices LLC, Sunnyvale, Calif., USA.
Z-138 suspension cells were maintained in growth medium (RPMI 1640 supplemented with 10% v/v heat inactivated fetal bovine serum and cultured at 37° C. under 5% CO2. Under assay conditions, cells were incubated in assay medium (RPMI 1640 supplemented with 10% v/v heat inactivated fetal bovine serum and 100 units/mL penicillin-streptomycin) at 37° C. under 5% CO2.
For the assessment of the effect of compounds on the proliferation of the Z-138 cell line, exponentially growing cells were plated in 384-well white opaque plates at a density of 10,000 cells/ml in a final volume of 50 μl of assay medium. A compound source plate was prepared by performing triplicate nine-point 3-fold serial dilutions in DMSO, beginning at 10 mM (final top concentration of compound in the assay was 20 μM and the DMSO was 0.2%). A 100 nL aliquot from the compound stock plate was added to its respective well in the cell plate. […] After addition of compounds, assay plates were incubated for 5 days at 37° C., 5% CO2, relative humidity >90%. Cell viability was measured by quantitation of ATP present in the cell cultures, adding 35 μl of Cell Titer Glo® reagent to the cell plates. Luminescence was read in the SpectraMax M5 microplate reader. The concentration of compound inhibiting cell viability by 50% was determined using a 4-parametric fit of the normalized dose response curves.

Row | SMILES | EC50 [µM]
1 | O=C(NC1CCOCC1)c1ccn(CC(O)CN2CCc3ccccc3C2)c(=O)c1 (stereo not shown) [Compound 33] | > 20

The molecules below were run against PRMT5/MEP50 (Homo sapiens (Human), UniProt O14744) (assay: PRMT5 Biochemical Assay (PRMT5/MEP50 enzyme assay on peptide substrate, 3H-SAM Flashplate)). Conditions: PRMT5/MEP50 4 nM, 3H-SAM 75 nM, peptide 40 nM.
Sequence of PRMT5/MEP50 (O14744 other isoform, or with tags, fused parts or gaps): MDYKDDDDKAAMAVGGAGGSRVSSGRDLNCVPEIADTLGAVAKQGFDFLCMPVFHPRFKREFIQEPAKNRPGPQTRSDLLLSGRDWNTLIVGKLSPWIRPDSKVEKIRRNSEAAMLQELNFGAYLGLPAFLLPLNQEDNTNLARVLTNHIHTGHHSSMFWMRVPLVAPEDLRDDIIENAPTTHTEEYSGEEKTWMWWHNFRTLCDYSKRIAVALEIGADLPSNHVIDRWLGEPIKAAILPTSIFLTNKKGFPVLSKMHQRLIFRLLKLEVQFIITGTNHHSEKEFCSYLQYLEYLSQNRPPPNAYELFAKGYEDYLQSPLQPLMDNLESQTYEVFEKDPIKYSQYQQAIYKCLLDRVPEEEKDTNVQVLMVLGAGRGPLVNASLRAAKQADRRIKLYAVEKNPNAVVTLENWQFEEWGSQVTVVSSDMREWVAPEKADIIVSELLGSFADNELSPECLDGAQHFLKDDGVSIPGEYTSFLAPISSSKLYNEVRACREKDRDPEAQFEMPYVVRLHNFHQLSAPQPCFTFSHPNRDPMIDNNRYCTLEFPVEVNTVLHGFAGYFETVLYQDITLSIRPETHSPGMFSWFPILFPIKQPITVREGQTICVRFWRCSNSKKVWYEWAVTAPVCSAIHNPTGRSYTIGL
Sequence of PRMT5/MEP50 (Q9BQA1 other isoform, or with tags, fused parts or gaps partner): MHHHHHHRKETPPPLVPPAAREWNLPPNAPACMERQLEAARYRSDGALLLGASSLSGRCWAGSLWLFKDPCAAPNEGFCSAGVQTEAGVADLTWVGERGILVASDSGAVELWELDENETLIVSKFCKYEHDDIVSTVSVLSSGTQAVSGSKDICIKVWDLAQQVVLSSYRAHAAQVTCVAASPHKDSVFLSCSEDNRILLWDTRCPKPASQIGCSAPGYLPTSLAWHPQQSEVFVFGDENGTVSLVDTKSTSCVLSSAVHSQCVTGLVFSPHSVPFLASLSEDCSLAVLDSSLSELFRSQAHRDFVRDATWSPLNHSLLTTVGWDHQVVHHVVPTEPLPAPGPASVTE
Description: S-adenosylmethionine (SAM), S-adenosylhomocysteine (SAH), bicine, KCl, Tween20, dimethylsulfoxide (DMSO), bovine skin gelatin (BSG), and Tris(2-carboxyethyl)phosphine hydrochloride solution (TCEP) were purchased from Sigma-Aldrich at the highest level of purity possible. ^3H-SAM was purchase from American Radiolabeled Chemicals with a specific activity of 80 Ci/mmol. 384-well streptavidin Flashplates were purchased from PerkinElmer.
Peptide representative of human histone H4 residues 1-15 was synthesized with a C-terminal linker-affinity tag motif and a C-terminal amide cap by 21st Century Biochemicals. The peptide was high high-perfomance liquid chromatography (HPLC) purified to greater than 95% purity and confirmed by liquid chromatography mass spectrometry (LC-MS). The sequence was Ac-[…][K-Biot]-amide (SEQ ID NO.:3).
Full-length human PRMT5 (NM_006109.3) transcript variant 1 clone was amplified from a fetal brain cDNA library, incorporating flanking 5′ sequence encoding a FLAG tag ([…]) (SEQ ID NO.:4) fused directly to Ala 2 of PRMT5. Full-length human MEP50 (NM_024102) clone was amplified from a human testis cDNA library incorporating a 5′ sequence encoding a 6-histidine tag (MHHHHHH) (SEQ ID NO.:5) fused directly to Arg 2 of MEP50. The amplified genes were sublconed into pENTR/D/TEV (Life Technologies) and subsequently transferred by Gateway™ attL×attR recombination to pDEST8 baculvirus expression vector (Life Technologies).
Recombinant baculovirus and Baculovirus-Infected Insect Cells (BIIC) were generated according to Bac-to-Bac kit instructions (Life Technologies) and Wasilko, 2006, respectively. Protein over-expression was accomplished by infecting exponentially growing Spodoptera frugiperda (SF9) cell culture at 1.2×10^6 cell/ml with a 5000 fold dilution of BIIC stock. Infections were carried out at 27° C. for 72 hours, harvested by centrifugation, and stored at −80° C. for purification.
Flag-PRMT5/6His-MeP50 was eluted with 300 mM Imidazole in the same buffer. The purity of recovered protein was 87%. Reference: Wasilko, D. J. and S. E. Lee: “TIPS: titerless infected-cells preservation and scale-up” Bioprocess J., 5 (2006), pp. 29-32.
General Procedure for PRMT5/MEP50 Enzyme Assays on Peptide Substrates.
The assays were all performed in a buffer consisting of 20 mM Bicine (pH=7.6), 1 mM TCEP, 0.005% BSG, and 0.002% Tween20, prepared on the day of use. Compounds in 100% DMSO (1 ul) were spotted into a polypropylene 384-well V-bottom plates (Greiner) using a Platemate Plus outfitted with a 384-channel head (Thermo Scientific). DMSO (1 ul) was added to Columns 11, 12, 23, 24, rows A-H for the maximum signal control and 1 ul of SAH, a known product and inhibitor of PRMT5/MEP50, was added to columns 11, 12, 23, 24, rows I-P for the minimum signal control. A cocktail (40 ul) containing the PRMT5/MEP50 enzyme and the peptide was added by Multidrop Combi (Thermo-Fisher). The compounds were allowed to incubate with PRMT5/MEP50 for 30 min at 25 degrees Celsius, then a cocktail (10 ul) containing ^3H-SAM was added to initiate the reaction (final volume=51 ul). The final concentrations of the components were as follows: PRMT5/MEP50 was 4 nM, ^3H-SAM was 75 nM, peptide was 40 nM, SAH in the minimum signal control wells was 100 uM, and the DMSO concentration was 1%. The assays were stopped by the addition of non-radioactive SAM (10 ul) to a final concentration of 600 uM, which dilutes the ^3H-SAM to a level where its incorporation into the peptide substrate is no longer detectable. 50 ul of the reaction in the 384-well polypropylene plate was then transferred to a 384-well Flashplate and the biotinylated peptides were allowed to bind to the streptavidin surface for at least 1 hour before being washed three times with 0.1% Tween20 in a Biotek ELx405 plate washer. […]

Row | SMILES | IC50 [µM]
2 | Cc1cccc(N2CCN(CC(O)CN3CCc4ccccc4C3)C(=O)C2)c1 (stereo not shown) [Compound 3, 1-(3-(3,4-dihydroisoquinolin-2(1H)-yl)-2-hydroxypropyl)-4-(m-tolyl)piperazin-2-one] | 10 to 50
3 | O=c1cccc(CC(O)CN2CCc3ccccc3C2)[nH]1 (stereo not shown) [Compound 2] | 10 to 50
4 | O=C1CC(c2ccccc2)CCN1C[C@@H](O)CN1CCc2ccccc2C1 (stereo partly shown) [Compound 17] | 1 to 10
5 | O=C1CC(c2ccccc2)CCN1C[C@H](O)CN1CCc2ccccc2C1 (stereo partly shown) [Compound 16] | 1 to 10
6 | O=C1CN(c2cccc(Cl)c2)CCN1CC(O)CN1CCc2ccccc2C1 (stereo not shown) [Compound 5, 4-(3-chlorophenyl)-1-(3-(3,4-dihydroisoquinolin-2(1H)-yl)-2-hydroxypropyl)piperazin-2-one] | < 0.1

Continued, values first:

Row | IC50 [µM] | SMILES
7 | 1 to 10 | O=C1CN(C2CCOCC2)CCN1CC(O)CN1CCc2ccccc2C1 (stereo not shown) [Compound 23]
8 | 1 to 10 | CC(=O)N1CCN(CC(O)CN2CCc3ccccc3C2)C(=O)C1 (stereo not shown) [Compound 21]
9 | 1 to 10 | O=C1COCCN1CC(O)CN1CCc2ccccc2C1 (stereo not shown) [Compound 28]
10 | > 50 | CN1CCN(CC(O)CN2CCc3ccccc3C2)C(=O)C1 (stereo not shown) [Compound 27]
11 | 1 to 10 | O=C1CN(Cc2cccnc2)CCN1CC(O)CN1CCc2ccccc2C1 (stereo not shown) [Compound 26]
12 | 1 to 10 | O=c1cc(Nc2ccccc2)ccn1C[C@H](O)CN1CCc2ccccc2C1 [Compound 18]
13 | 0.101 to 1 | O=C1CN(c2ccc(CO)cc2)CCN1CC(O)CN1CCc2ccccc2C1 (stereo not shown) [Compound 20]
14 | 1 to 10 | O=C1CN(Cc2ccccn2)CCN1CC(O)CN1CCc2ccccc2C1 (stereo not shown) [Compound 25]
15 | 1 to 10 | CN(C)c1ccc(N2CCN(C[C@H](O)CN3CCc4ccccc4C3)C(=O)C2)cc1 [Compound 30]
16 | > 10 | O=C(NC1CCOCC1)C1CC(=O)N(CC(O)CN2CCc3ccccc3C2)C1 (stereo not shown) [Compound 32]
17 | 1 to 10 | O=C1CN(Cc2ccccc2)CCN1CC(O)CN1CCc2ccccc2C1 (stereo not shown) [Compound 24]
18 | 1 to 10 | CS(=O)(=O)N1CCN(CC(O)CN2CCc3ccccc3C2)C(=O)C1 (stereo not shown) [Compound 22]

These molecules were tested on symmetric di-methyl arginine in Z-138 cells (assay: Z-138 Methylation Assay (In Cell Western for symmetric di-methyl arginine and DNA content)). Conditions: Homo sapiens, 96 hours incubation, read-out: ICW EC50.
Format: cell-based
Description: [formula] [formula] Where top and bottom are the normally allowed to float, but may be fixed at 100 or 0 respectively in a 3-parameter fit. The Hill Coefficient normally allowed to float but may also be fixed at 1 in a 3-parameter fit. Y is the % inhibition and X is the compound concentration. Z-138 Methylation Assay
Z-138 suspension cells were purchased from ATCC (American Type Culture Collection, Manassas, Va.). RPMI/Glutamax medium, penicillin-streptomycin, heat inactivated fetal bovine serum, and D-PBS were purchased from Life Technologies, Grand Island, N.Y., USA. Odyssey blocking buffer, 800CW goat anti-rabbit IgG (H+L) antibody, and Licor Odyssey infrared scanner were purchased from Licor Biosciences, Lincoln, Nebr., USA. Symmetric di-methyl arginine antibody was purchased from EMD Millipore, Billerica, Mass., USA. 16% Paraformaldehyde was purchased from Electron Microscopy Sciences, Hatfield, Pa., USA.
Z-138 suspension cells were maintained in growth medium (RPMI 1640 supplemented with 10% v/v heat inactivated fetal bovine serum and 100 units/mL penicillin-streptomycin) and cultured at 37° C. under 5% CO2.
Cell Treatment, in Cell Western (ICW) for Detection of Symmetric Di-Methyl Arginine and DNA Content.
Z-138 cells were seeded in assay medium at a concentration of 50,000 cells per mL to a 384-well cell culture plate with 50 μL per well. Compound (100 nL) from 384 well source plates was added directly to 384 well cell plate. Plates were incubated at 37° C., 5% CO2 for 96 hours. After four days of incubation, 40 μL of cells from incubated plates were added to poly-D-lysine coated 384 well culture plates (BD Biosciences 356697). Plates were incubated at room temperature for 30 minutes then incubated at 37° C., 5% CO2 for 5 hours. After the incubation, 40 μL per well of 8% paraformaldehyde in PBS (16% paraformaldahyde was diluted to 8% in PBS) was added to each plate and incubated for 30 minutes. Plates were transferred to a Biotek 405 plate washer and washed 5 times with 100 μL per well of wash buffer (1×PBS with 0.1% Triton X-100 (v/v)). Next 30 μL per well of Odyssey blocking buffer were added to each plate and incubated 1 hour at room temperature. Blocking buffer was removed and 20 μL per well of primary antibody was added (symmetric di-methyl arginine diluted 1:100 in Odyssey buffer with 0.1% Tween 20 (v/v)) and plates were incubated overnight (16 hours) at 4° C. Plates were washed 5 times with 100 μL per well of wash buffer. Next 20 μL per well of secondary antibody was added (1:200 800CW goat anti-rabbit IgG (H+L) antibody, 1:1000 DRAQ5 (Biostatus limited) in Odyssey buffer with 0.1% Tween 20 (v/v)) and incubated for 1 hour at room temperature. The plates were washed 5 times with 100 μL per well wash buffer then 1 time with 100 μL per well of water. Plates were allowed to dry at room temperature then imaged on the Licor Odyssey machine which measures integrated intensity at 700 nm and 800 nm wavelengths. Both 700 and 800 channels were scanned.
First, the ratio for each well was determined by:
Each plate included fourteen control wells of DMSO only treatment (minimum inhibition) as well as fourteen control wells for maximum inhibition treated with 3 μM of a reference compound (Background wells). The average of the ratio values for each control type was calculated and used to determine the percent inhibition for each test well in the plate. Reference compound was serially diluted three-fold in DMSO for a total of nine test concentrations, beginning at 3 μM. Percent inhibition was determined and IC50 curves were generated using triplicate wells per concentration of compound.

Row | SMILES | EC50 [µM]
19 | Cc1ccccc1N1CCN(CC(O)CN2CCc3ccccc3C2)C(=O)C1 (stereo not shown) [Compound 10] | > 50
20 | O=c1cc(-c2ccccc2)ccn1C[C@@H](O)CN1CCc2ccccc2C1 [Compound 14] | > 50
21 | O=c1cc(-c2ccccc2)ccn1C[C@H](O)CN1CCc2ccccc2C1 [Compound 13] | > 50
22 | O=C1CN(c2cccc(Cl)c2)CCN1CC(O)CN1CCc2ccccc2C1 (stereo not shown) [Compound 5, 4-(3-chlorophenyl)-1-(3-(3,4-dihydroisoquinolin-2(1H)-yl)-2-hydroxypropyl)piperazin-2-one] | 1 to 10
23 | O=C1CN(c2ccccc2F)CCN1CC(O)CN1CCc2ccccc2C1 (stereo not shown) [Compound 11, 1-(3-(3,4-dihydroisoquinolin-2(1H)-yl)-2-hydroxypropyl)-4-(2-fluorophenyl)piperazin-2-one] | > 50

Other lines, results leading:

Row | EC50 [µM] | SMILES
24 | 1 to 10 | O=C1CN(c2ccc(CO)cc2)CCN1CC(O)CN1CCc2ccccc2C1 (stereo not shown) [Compound 20]
25 | 1 to 10 | O=C(NC1CCOCC1)c1ccn(CC(O)CN2CCc3ccccc3C2)c(=O)c1 (stereo not shown) [Compound 33]
